Laboratory results: publication PMC9127750, “Structure-based design of CDC42 effector interaction inhibitors for the treatment of cancer” (Cell reports, 2022)
Where “and” joins values, the source holds several entries; their conditions need not be identical. Identical values can stand only once.

Test system: WM3248 melanoma cells, 486 antibodies
Experiment: Reverse phase protein arrays (RPPA)
Format: cell-based, Human
Excerpt: Pellets were snap frozen in liquid nitrogen and shipped to MD Anderson Cancer Center core RPPA facility for RPPA analysis (Table S5). Three biological replicates for each sample were generated.
Nomenclatures on the RPPA heatmaps: name_of_antibody.species_of_antibody.status_of_antibody. V - antibody validated; C - validation of antibody in progress; Q - antibody nonspecific; E – under evaluation; antibodies raised in M - mouse, G - goat, R - rabbit, or T - rat.

[1] = level 20 normalized to 0, single replicates

In the case of `CN(C)c1cccc(Nc2cc(-c3ccccc3)nc(C3CCNCC3)n2)c1` [ARN22089, N1,N1-dimethyl-N3-(6-phenyl-2-(piperidin-4-yl)pyrimidin-4-yl)benzene-1,3-diamine], the “VHL.EPPK1.M.C Norm_20_1 to Norm_20_3” value [1] is reported as 0.500 and 1.345 and 0.800, the “VHL.R.C Norm_20_1 to Norm_20_3” value [1] is reported as 0.916 and 0.962 and 0.841 and the “Vinculin.M.V Norm_20_1 to Norm_20_3” value [1] is reported as 0.883 and 0.898 and 1.015. For the same compound, the “WIPI1.R.C Norm_20_1 to Norm_20_3” value [1] was 1.294 and 1.483 and 1.388, the “WIPI2.R.C Norm_20_1 to Norm_20_3” value [1] was 1.222 and 0.891 and 1.265 and the “WTAP.R.V Norm_20_1 to Norm_20_3” value [1] was 1.313 and 1.590 and 0.930. For the same compound, the “Wee1.R.C Norm_20_1 to Norm_20_3” value [1] was 0.789 and 0.790 and 1.159, the “Wee1_pS642.R.C Norm_20_1 to Norm_20_3” value [1] was 0.904 and 0.831 and 1.081 and the “XBP.1.G.C Norm_20_1 to Norm_20_3” value [1] was 0.929 and 1.289. For the same compound, the “XIAP.R.C Norm_20_1 to Norm_20_3” value [1] was 0.985 and 0.834 and 1.059, the “XPA.M.V Norm_20_1 to Norm_20_3” value [1] was 0.800 and 0.980 and 0.934 and the “XPF.R.C Norm_20_1 to Norm_20_3” value [1] was 0.837 and 0.882. For the same compound, the “XRCC1.R.C Norm_20_1 to Norm_20_3” value [1] was 0.881 and 1.133, the “YAP.R.C Norm_20_1 to Norm_20_3” value [1] was 0.917 and 1.135 and 0.817 and the “YAP_pS127.R.V Norm_20_1 to Norm_20_3” value [1] was 1.228 and 0.736. For the same compound, the “YB1_pS102.R.V Norm_20_1 to Norm_20_3” value [1] was 0.867, the “YES1.R.V Norm_20_1 to Norm_20_3” value [1] was 0.976 and 0.995 and the “YTHDF2.R.V Norm_20_1 to Norm_20_3” value [1] was 1.165 and 1.218 and 1.246. The “YTHDF3.R.C Norm_20_1 to Norm_20_3” value [1] was 1.003 and 1.082 and 1.010, the “ZAP.70.R.V Norm_20_1 to Norm_20_3” value [1] was 0.955 and 0.894 and 0.817 and the “ZEB1.R.V Norm_20_1 to Norm_20_3” value [1] was 0.925 and 1.022 and 0.936. The “HLA.DQA1.R.V Norm_20 Average” value (level 20 vs 0) was 0.977, the “HMHA1.R.V Norm_20 Average” value (level 20 vs 0) was 1.016 and the “HNRNPK.R.V Norm_20 Average” value (level 20 vs 0) was 0.991. For the same compound, the “HSP27.M.C Norm_20 Average” value (level 20 vs 0) was 0.811, the “HSP27_pS82.R.V Norm_20 Average” value (level 20 vs 0) was 0.961 and the “HSP60.R.V Norm_20 Average” value (level 20 vs 0) was 0.996. The “HSP70.R.C Norm_20 Average” value (level 20 vs 0) was 1.202, the “Hexokinase.I.R.C Norm_20 Average” value (level 20 vs 0) was 1.201 and the “Hif.1αR.C Norm_20 Average” value (level 20 vs 0) was 1.051. For the same compound, the “Histone.H3.R.V Norm_20 Average” value (level 20 vs 0) was 5.937, the “Histone.H3_pS10.R.V Norm_20 Average” value (level 20 vs 0) was 2.467 and the “IDO.R.C Norm_20 Average” value (level 20 vs 0) was 0.964. For the same compound, the “IGF1R_pY1135_Y1136.R.V Norm_20 Average” value (level 20 vs 0) was 0.962, the “IGFBP3.M.V Norm_20 Average” value (level 20 vs 0) was 0.905 and the “IL.6.R.C Norm_20 Average” value (level 20 vs 0) was 0.971. The “IMP3.R.C Norm_20 Average” value (level 20 vs 0) was 0.967, the “INPP4b.R.C Norm_20 Average” value (level 20 vs 0) was 0.976 and the “IRF.1.R.V Norm_20 Average” value (level 20 vs 0) was 0.958. The “IRF.3.R.V Norm_20 Average” value (level 20 vs 0) was 0.882, the “IRS1.R.V Norm_20 Average” value (level 20 vs 0) was 1.050 and the “IRS2.R.C Norm_20 Average” value (level 20 vs 0) was 1.223. The “JAB1.M.C Norm_20 Average” value (level 20 vs 0) was 0.970, the “JNK2.R.V Norm_20 Average” value (level 20 vs 0) was 1.099 and the “JNK_pT183_Y185.R.C Norm_20 Average” value (level 20 vs 0) was 1.003. For the same compound, the “Jagged1.R.V Norm_20 Average” value (level 20 vs 0) was 1.028, the “KAP1.R.V Norm_20 Average” value (level 20 vs 0) was 1.259 and the “KEAP1.R.V Norm_20 Average” value (level 20 vs 0) was 1.000. The “LAD1.R.V Norm_20 Average” value (level 20 vs 0) was 0.964, the “LC3A.B.R.C Norm_20 Average” value (level 20 vs 0) was 1.242 and the “LCN2.R.V Norm_20 Average” value (level 20 vs 0) was 1.622. For the same compound, the “LDHA.R.C Norm_20 Average” value (level 20 vs 0) was 1.558, the “LRP6_pS1490.R.V Norm_20 Average” value (level 20 vs 0) was 1.024 and the “Lck.R.V Norm_20 Average” value (level 20 vs 0) was 1.304. The “Lyn.R.V Norm_20 Average” value (level 20 vs 0) was 1.028, the “MACC1.R.V Norm_20 Average” value (level 20 vs 0) was 0.935 and the “MAPK_pT202_Y204.R.C Norm_20 Average” value (level 20 vs 0) was 0.567. For the same compound, the “MCT4.R.V Norm_20 Average” value (level 20 vs 0) was 0.993, the “MDM2_pS166.R.V Norm_20 Average” value (level 20 vs 0) was 1.398 and the “MEK1.R.V Norm_20 Average” value (level 20 vs 0) was 1.549. For the same compound, the “MEK1_pS217_S221.R.V Norm_20 Average” value (level 20 vs 0) was 0.977, the “MEK2.R.V Norm_20 Average” value (level 20 vs 0) was 1.030 and the “MERIT40.R.C Norm_20 Average” value (level 20 vs 0) was 0.913. The “MERIT40_pS29.R.V Norm_20 Average” value (level 20 vs 0) was 1.026, the “METTL3.R.V Norm_20 Average” value (level 20 vs 0) was 1.246 and the “MIF.R.C Norm_20 Average” value (level 20 vs 0) was 0.892. For the same compound, the “MIG6.R.V Norm_20 Average” value (level 20 vs 0) was 0.907, the “MLH1.M.V Norm_20 Average” value (level 20 vs 0) was 0.889 and the “MLKL.R.V Norm_20 Average” value (level 20 vs 0) was 0.854. The “MMP2.R.V Norm_20 Average” value (level 20 vs 0) was 0.934, the “MMP14.R.V Norm_20 Average” value (level 20 vs 0) was 1.655 and the “MR1.M.C Norm_20 Average” value (level 20 vs 0) was 0.987. For the same compound, the “MRAP.R.C Norm_20 Average” value (level 20 vs 0) was 1.110, the “MSH2.R.C Norm_20 Average” value (level 20 vs 0) was 0.939 and the “MSH6.R.C Norm_20 Average” value (level 20 vs 0) was 1.329. For the same compound, the “MSI2.R.C Norm_20 Average” value (level 20 vs 0) was 1.187, the “MTCO1.M.V Norm_20 Average” value (level 20 vs 0) was 1.135 and the “MTSS1.M.C Norm_20 Average” value (level 20 vs 0) was 0.937. The “Mcl.1.R.V Norm_20 Average” value (level 20 vs 0) was 0.754, the “MelanA.R.C Norm_20 Average” value (level 20 vs 0) was 1.025 and the “Melanoma.gp100.R.C Norm_20 Average” value (level 20 vs 0) was 1.012.
